Data reported in patent publication US8653003B2, “Pyrazol-4-yl carboxamide derivatives as microbiocides” (Syngenta Participations AG, priority 2011, dated 2014).

Tests used:
Puccinia recondita [1] = assay: Curative action against Puccinia recondita (brown rust) on wheat leaf segments; format: in vivo; conditions: foliar, 0.02% active ingredient sprayed one day after inoculation, assessed 8 days after inoculation, read-out: curative fungicidal activity (inhibition)
Description: Wheat leaf segments were placed on agar in multiwell plates (24-well format) and inoculated with a spore suspension of the fungus. One day after inoculation the leaf segments were sprayed with test solutions (0.02% active ingredient). After appropriate incubation the activity of a compound was assessed 8 days after inoculation as curative fungicidal activity.

Septoria tritici = assay: Action against Septoria tritici - fungal growth assay; format: cell-based; conditions: Zymoseptoria tritici; 0.002% active ingredient, PDB broth, 24° C., photometric after 72 hrs
Description: (§1) Conidia of the fungus from cryogenic storage were directly mixed into nutrient broth (PDB potato dextrose broth). After placing a (DMSO) solution of the test compounds (0.002% active ingredient) into a microtiter plate (96-well format) the nutrient broth containing the fungal spores was added. The test plates were incubated at 24° C. and the inhibition of growth was determined photometrically after 72 hrs. The activity of a compound was expressed as fungal growth inhibition (0=no growth inhibition, ratings of 80% to 99% mean good to very good inhibition, 100%=complete inhibition).

Botrytis cinerea = assay: Action against Botrytis cinerea - fungal growth assay; format: cell-based; conditions: 0.002% active ingredient, PDB broth, 24° C., photometric after 3-4 days
Description: as §1, with “storage was” for “storage were”, “was measured” for “was determined”, “after 3-4 days.” for “after 72 hrs.”

Pyrenophora teres = assay: Action against Pyrenophora teres (net blotch) on barley leaf segments; format: in vivo; conditions: foliar, 96 h, 0.02% active ingredient sprayed on barley leaf segments, assessed 4 days after inoculation, read-out: preventive fungicidal activity (inhibition)
Description: (§2) Barley leaf segments were placed on agar in multiwell plates (24-well format) and sprayed with test solutions (0.02% active ingredient). After drying, the leaf disks were inoculated with a spore suspension of the fungus. After appropriate incubation the activity of a compound was assessed 4 days after inoculation as preventive fungicidal activity.

[2] = tested on: Mycosphaerella arachidis (Cercospora arachidicola [anamorph]); assay: Action against Mycosphaerella arachidis (early leaf spot of groundnut) - fungal growth assay; format: cell-based; conditions: 0.002% active ingredient, PDB broth, 24° C., photometric after 6-7 days
Description: as §1, with “(Pdb” for “(PDB”, “measured” for “determined”, “6-7 days.” for “72 hrs.”

Puccinia recondita [3] = assay: Protective action against Puccinia recondita (brown rust) on wheat leaf segments; format: in vivo; conditions: foliar, 192 h, 0.02% active ingredient sprayed on wheat leaf segments, assessed 8 days after inoculation, read-out: preventive fungicidal activity (inhibition)
Description: as §2, with “Wheat leaf” for “Barley leaf”, “assessed 8” for “assessed 4”

[4] = tested on: Erysiphe graminis f. sp. tritici; assay: Action against Erysiphe graminis f. sp. tritici (wheat powdery mildew), wheat leaf segments; format: in vivo; conditions: Blumeria graminis, foliar, 168 h; 0.02% active ingredient sprayed on wheat leaf segments, assessed 7 days after inoculation; read-out: preventive fungicidal activity (inhibition)
Description: as §2, with “Wheat leaf” for “Barley leaf”, “assessed 7” for “assessed 4”

`CON(C(=O)c1cn(C)nc1C(F)F)C1CCCc2ccccc21` (stereo not shown) [Compound 1.001] gave an inhibition at 0.02 % strength (Puccinia recondita [1]) of no less than 80%, an inhibition at 0.002 % strength (Septoria tritici) of no less than 80% and an inhibition at 0.002 % strength (Botrytis cinerea) of no less than 80%. For the same compound, the inhibition at 0.02 % strength (Pyrenophora teres) was no less than 80%, the inhibition at 0.002 % strength [2] was no less than 80% and the inhibition at 0.02 % strength (Puccinia recondita [3]) was no less than 80%. For the same compound, the melting point was 91 to 95 °C and the inhibition at 0.02 % strength [4] was no less than 80%.

`CON(C(=O)c1cn(C)nc1C(F)F)C1CCCc2ccc(Cl)cc21` (stereo not shown) [Compound 1.003, 3-difluoromethyl-1-methyl-1H-pyrazole-4-carboxylic acid (7-chloro-1,2,3,4-tetrahydro-naphthalen-1-yl)-methoxy-amide] showed an inhibition at 0.02 % strength (Puccinia recondita [1]) of no less than 80%, an inhibition at 0.002 % strength (Septoria tritici) of no less than 80% and an inhibition at 0.02 % strength (Pyrenophora teres) of no less than 80%. The inhibition at 0.002 % strength [2] was no less than 80%, the inhibition at 0.02 % strength (Puccinia recondita [3]) was no less than 80% and the inhibition at 0.02 % strength [4] was no less than 80%.

For `CON(C(=O)c1cn(C)nc1C(F)F)C1CCCCc2ccc(I)cc21` (stereo not shown) [Compound 1.062, 3-difluoromethyl-1-methyl-1H-pyrazole-4-carboxylic acid (3-iodo-6,7,8,9-tetrahydro-5-H-benzocyclohepten-5-yl)-methoxy-amide], the inhibition at 0.02 % strength (Puccinia recondita [1]) was no less than 80%, the inhibition at 0.002 % strength (Septoria tritici) was no less than 80% and the inhibition at 0.002 % strength [2] was no less than 80%. The inhibition at 0.02 % strength (Puccinia recondita [3]) was no less than 80%.

Work on `CON(C(=O)c1cn(C)nc1C(F)F)C1c2ccccc2CCCC1F` (stereo not shown) [Compound 1.065, 3-difluoromethyl-1-methyl-1H-pyrazole-4-carboxylic acid (6-fluoro-6,7,8,9-tetrahydro-5-H-benzocyclohepten-5-yl)-methoxy-amide] yielded an inhibition at 0.02 % strength (Puccinia recondita [1]) of no less than 80%, an inhibition at 0.002 % strength (Septoria tritici) of no less than 80% and an inhibition at 0.002 % strength (Botrytis cinerea) of no less than 80%. It also gave an inhibition at 0.02 % strength (Pyrenophora teres) of no less than 80%, an inhibition at 0.002 % strength [2] of no less than 80% and an inhibition at 0.02 % strength (Puccinia recondita [3]) of no less than 80%. It also gave an inhibition at 0.02 % strength [4] of no less than 80%.
